Source: publication PMC12627933, “A First-In-Human Study of the SUMOylation Inhibitor Subasumstat in Patients with Advanced/Metastatic Solid Tumors or Relapsed/Refractory Hematologic Malignancies” (Cancer Research Communications, 2025)

Key:
[1] = test system: tumor microenvironment (TME); assay: Tumor microenvironment in paired tumor biopsies (multiplex immunofluorescence, PD-L1 22C3 IHC CPS); assay type: in vivo, human
Protocol: (§1) Blood samples for subasumstat–SUMO adduct formation and SUMO2/3 inhibition assessments were collected before dose and at 1, 4, and 8 hours after the infusion on C1D1 and C1D8. Blood samples for additional biomarker analyses were collected before dose on C1D1 and C1D8 and at 4, 8, and 24 hours after infusion on C1D1 and C1D8. Skin biopsies (used as surrogate tissue for solid tumors) were collected at screening and on C1D8 at 2 hours (±30 minutes) after end of infusion, and tumor biopsies were collected at screening and cycle 2 day 8 (C2D8; +7 days; whenever possible). In blood samples, a custom flow cytometry assay was utilized for detecting target engagement and SUMOylated protein levels in lymphocytes (including T-, B-, and NK-cell subsets). The assay included a PE-conjugated antibody specifically recognizing the SUMO–subasumstat adduct (MIL-113, anti–cysteinyl-TAK-981, Epitomics; refs. [14], [15], [22]) and an AF488-conjugated antibody recognizing SUMO2/3 conjugates (MBL International, cat. #M114-3, RRID: AB_592769). Peripheral blood cells were lysed/fixed, permeabilized (BD Biosciences), and stained with MIL-113 and M114-3 and with antibodies against CD45, CD3, CD19, CD16/CD56, and CD14. IHC assays for SUMO–subasumstat adduct and SUMO2/3 inhibition in skin biopsies and tumors were performed using MIL-113 and M114-3 antibodies. Activation of the IFNI pathway was assessed in peripheral blood by analysis of gene expression data (PanCancer IO 360 panel by NanoString for phase I and whole-transcriptome RNA sequencing data for phase II). Type I IFN gene signature was computed using geometric mean of the following genes: CCL2, CXCL10, DDX58, IRF7, ISG15, STAT1, and STAT2. These seven IFNI-regulated genes were selected prior to the trial, based on in vitro studies of the effect of subasumstat on human blood from 10 healthy donors analyzed on the NanoString PanCancer IO 360 panel. Plasma chemokines and cytokines were measured using the MesoScale Discovery platform (pro-inflammatory and chemokine panels, BioAgilytix). For assessment of NK- and T-cell activation, cells were suspended in buffer and incubated with the following monoclonal antibodies: APC-H7 mouse anti–human CD45 (BD Biosciences, cat. #560274), APC mouse anti–human CD69 (BD Biosciences, cat. #555533), BV421 mouse anti–human CD56 (BD Biosciences, cat. #562751), mouse anti–human CD16 PerCP-Cy5.5 (BD Biosciences, cat. #338440), BV510 mouse anti–human CD4 (BD Biosciences, cat. #563094), BV605 mouse anti–human CD8 (BD Biosciences, cat. #564116), and Alexa Fluor 700 anti–mouse CD3 antibody (BioLegend, cat. #100215), prior to assessment by flow cytometry using the BD Scientific FACSCanto flow cytometer (RRID: SCR_018055). Tumor PD-L1 expression level was assessed in paired tumor biopsies using the 22C3 PD-L1 IHC assay; combined positive score (CPS) was calculated for baseline and on-treatment tumor samples. The immune landscape in the tumor microenvironment (TME) was assessed using an integrated RNAscope and 27-marker MultiOmyx immunofluorescence panel.

[2] = test system: lymphoma and pancreatic cancer xenografts; parameters: method as in PMID 33631934; conditions: cited from earlier work
relapsed/refractory NHL = test system: relapsed/refractory NHL; parameters: method as in ref 19 = [19]; 19. Assouline S , Mehta A , Phillips T , Alinari L , Danilov AV , Doucet S , . TAK-981, a first-in-class SUMO-activating enzyme inhibitor, combined with rituximab in adult patients (Pts) with CD20-pos; conditions: in combination with rituximab; 24 patients with relapsed/refractory NHL; cited from earlier work
[3] = molecular target: T1, SUMO-activating enzyme (SAE) (Homo sapiens, UniProt Q9UBT2); assay: Target engagement: SUMO–subasumstat adduct formation in blood lymphocytes, skin and tumor (flow cytometry, IHC); assay type: in vivo
T1 construct: from tissue; host or cells: patients' peripheral blood lymphocytes, skin biopsies and tumor biopsies
T1 sequence (Q9UBT2 1-640): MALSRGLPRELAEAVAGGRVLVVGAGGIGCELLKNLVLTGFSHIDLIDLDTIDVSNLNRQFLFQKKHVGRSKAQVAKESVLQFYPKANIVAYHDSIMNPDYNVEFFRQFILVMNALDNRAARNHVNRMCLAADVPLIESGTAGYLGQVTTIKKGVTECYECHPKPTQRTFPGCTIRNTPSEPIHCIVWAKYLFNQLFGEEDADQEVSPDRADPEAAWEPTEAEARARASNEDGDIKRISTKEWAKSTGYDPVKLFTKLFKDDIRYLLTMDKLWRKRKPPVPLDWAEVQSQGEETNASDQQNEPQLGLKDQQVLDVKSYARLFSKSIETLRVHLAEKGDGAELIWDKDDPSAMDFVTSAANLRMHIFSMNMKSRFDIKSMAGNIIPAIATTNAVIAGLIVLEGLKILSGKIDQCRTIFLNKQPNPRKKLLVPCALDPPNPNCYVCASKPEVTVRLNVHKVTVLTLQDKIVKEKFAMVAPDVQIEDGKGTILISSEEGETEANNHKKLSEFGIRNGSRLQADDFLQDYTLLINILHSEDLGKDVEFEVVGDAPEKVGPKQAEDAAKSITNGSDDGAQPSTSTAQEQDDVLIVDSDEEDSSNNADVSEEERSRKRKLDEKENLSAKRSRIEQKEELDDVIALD
T1 sequence (Q9UBE0 1-346 partner): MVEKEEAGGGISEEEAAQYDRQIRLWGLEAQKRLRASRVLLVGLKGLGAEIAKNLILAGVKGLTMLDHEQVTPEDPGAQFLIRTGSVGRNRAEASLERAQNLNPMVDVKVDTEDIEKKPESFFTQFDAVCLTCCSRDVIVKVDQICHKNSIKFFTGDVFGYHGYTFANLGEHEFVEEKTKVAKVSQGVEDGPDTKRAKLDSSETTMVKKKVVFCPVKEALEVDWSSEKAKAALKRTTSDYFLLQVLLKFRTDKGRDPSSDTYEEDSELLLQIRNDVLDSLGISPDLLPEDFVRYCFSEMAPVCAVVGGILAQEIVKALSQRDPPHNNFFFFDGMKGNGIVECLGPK
Protocol: as §1

[4] = cited from earlier work
[5] = cervical cancer and melanoma biopsies

## Cc1sc(C(=O)c2cncnc2N[C@@H]2C[C@H](COS(N)(=O)=O)[C@@H](O)C2)cc1[C@@H]1NCCc2ccc(Cl)cc21 [subasumstat]
[1]; CPI-naïve cervical cancer and CPI-exposed melanoma and NSCLC samples
  T-cell infiltration in tumor: significant CD8^+ and CD4^+ T-cell infiltration
[1]; biopsies from three patients with MSS colorectal cancer
  T-cell density in tumor: did not exhibit an increase in T-cell density
[1]; [5]
  Activated CD11C+HLA-DR+ myeloid dendritic cells: increase in density
  HLA class I expression on tumor cells: marked increase
  T-cell activation (CD69 on CD4+ and CD8+ T cells) in tumor: significant increase in T-cell activation
[1]; paired tumor samples, C2D8
  PD-L1 CPS: increased in most paired tumor samples
[1]; same biopsies
  Regulatory T cells in tumor: no significant changes
[2]; immunocompromised mice
  Antitumor activity: shows antitumor activity
[2]; xenograft models
  SUMOylation in tumors: inhibits SUMOylation in tumors
relapsed/refractory NHL
  ORR: 29%
[3]; all evaluated tumor samples, 8 patients 90 mg twice weekly (C2D8), 1 melanoma patient 25 mg twice weekly (C1D8)
  Target engagement in tumor samples: robust target engagement
[3]; peripheral blood lymphocytes, C1D1 and C1D8, phase I
  Dose level from which SUMO–subasumstat adduct formation was detected: ≥ 10 mg
[3]; peripheral blood lymphocytes, doses ≥10 mg
  Time to detection of SUMO–subasumstat adduct after end of infusion: ≤ 1 h
[3]; peripheral blood lymphocytes, twice weekly and once weekly schedules
  Persistence of target engagement: at least 8 hours
[3]; skin biopsies 2 hours after the C1D8 dose
  Dose from which adduct formation was observed in skin biopsies: ≥ 10 mg
[4]; A20 lymphoma–bearing BALB/c mice
  Lymphopenia: transient lymphopenia
[4]; mouse model of pancreatic ductal adenocarcinoma
  B-cell depletion: transient B-cell depletion
[4]; preclinical mouse models
  Systemic toxicities: No systemic toxicities were observed
